Test results taken from publication PMC11134331, “Cell-active small molecule inhibitors validate the SNM1A DNA repair nuclease as a cancer target” (Chemical Science, 2024).

Tests used:
[1] = tested on: γH2AX and EGFP-SNM1A foci in U2OS cells; assay: microscopic analysis of damage-induced subnuclear foci, U2OS cells expressing EGFP-SNM1A; format: cell-based, human; details: U2OS, cisplatin treated, without 19
Experimental: To this end, cells stably expressing N-terminally EGFP-tagged SNM1A (EGFP-SNM1A) were treated with 50 μM cisplatin alone, 19 (50 μM), or with a combination of both compounds. It is known that on treatment of cells with DNA crosslinking agents, SNM1A forms subnuclear foci that are associated with ongoing sites of DNA repair.[37] […] As previously established, cisplatin treatment efficiently induces co-localisation of EGFP-SNM1A foci and γH2AX foci within 4 hours following treatment, marking sites of cisplatin damage and its repair (Fig. 6C–E). These largely resolved 24 hours post-treatment, again consistent with previous studies.[16,37] Co-treatment of cells with 19 and cisplatin saw a robust induction of SNM1A foci, consistent with the SNM1A activity being dispensable for its localisation to sites of crosslink repair, and γH2AX foci formation (Fig. 6C–E). […] This clear persistence of repair intermediates and trapping of EGFP-SNM1A at the sites of these repair intermediate implies that 19 engages with SNM1A in a cellular context, delaying the completion of cisplatin crosslink repair, which, in turn, results in the sensitisation of cells to cisplatin.
To assess the number of nuclear foci following cisplatin/inhibitor treatments, cells were plated in glass bottom dishes (as above) and allowed to attach. Following treatment, cells were fixed with 4% (v/v) formaldehyde in PBS, blocked with immunofluoresence (IF) blocking buffer (5% horse serum, 1% saponin in PBS) for 1 h, then incubated with primary antibodies at the desired concentrations in IF blocking buffer (overnight, 4 °C). After washing cells three times with PBS, cells were incubated with secondary antibodies for 2–4 hours in IF blocking buffer, washed a further 3 times with PBS then stained with Hoechst 333 258 (1 μg mL^−1 in PBS) for 30 minutes before a further three washes (all washes and incubations were performed at room temperature, unless otherwise stated).
Confocal images were obtained with a Plan APO 63X 1.40NA oil immersion objective, a pinhole setting of 1 AU, bandpass emission settings of 410–468 nm for Hoechst, 490–544 nm for EGFP, 579–624 nm for RFP or Alexa 568, and 633–695 nm for Alexa 647, a projected pixel dimension of around 110 nm × 110 nm, a pixel dwell time of 1.35 μs, and with a line averaging setting of 2. In order to ensure sufficient cell numbers (N > 300), images were acquired in a tiled 5 × 5 format corresponding to an image area of about 0.65 mm × 0.65 mm. Images were imported into ImageJ and foci were counted using a macro adjusting for staining levels between experiments. Anti-γH2AX antibodies were a mouse monoclonal (Millipore; JBW301).

[2] = tested on: γH2AX foci in RPE-1 cells; assay: microscopic analysis of damage-induced subnuclear foci, RPE-1 cells; format: cell-based, human; details: RPE-1, cisplatin treated, without 19
Experimental: To assess the number of nuclear foci following cisplatin/inhibitor treatments, cells were plated in glass bottom dishes (as above) and allowed to attach. Following treatment, cells were fixed with 4% (v/v) formaldehyde in PBS, blocked with immunofluoresence (IF) blocking buffer (5% horse serum, 1% saponin in PBS) for 1 h, then incubated with primary antibodies at the desired concentrations in IF blocking buffer (overnight, 4 °C).
Images were imported into ImageJ and foci were counted using a macro adjusting for staining levels between experiments. Anti-γH2AX antibodies were a mouse monoclonal (Millipore; JBW301).

SNM1B = target: T1, SNM1B (Homo sapiens, UniProt Q9H816); assay: real-time fluorescence-based nuclease assay, SNM1B; format: biochemical
T1 construct: for the MBL and β-CASP domains of SNM1B (aa 1–335) into baculoviral expression vectors pFB-CT10HF-LIC; made in house; host or cells: Sf9 insect cells (baculovirus)
T1 sequence (Q9H816 1-335): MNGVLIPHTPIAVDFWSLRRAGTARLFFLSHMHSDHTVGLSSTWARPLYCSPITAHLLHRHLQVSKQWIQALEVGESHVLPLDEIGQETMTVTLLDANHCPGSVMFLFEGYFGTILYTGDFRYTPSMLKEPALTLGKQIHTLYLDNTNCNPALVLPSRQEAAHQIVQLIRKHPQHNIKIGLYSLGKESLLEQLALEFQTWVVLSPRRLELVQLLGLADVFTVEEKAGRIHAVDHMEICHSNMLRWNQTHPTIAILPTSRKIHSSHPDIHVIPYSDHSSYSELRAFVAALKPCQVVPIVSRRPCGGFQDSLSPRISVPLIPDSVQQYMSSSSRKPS
Experimental: (§1) There is structural similarity between SNM1A, SNM1B, and SNM1C and major mechanistic features are likely conserved between the three nucleases. We therefore tested (13) and other hydroxamic acid analogues for inhibition of SNM1B and SNM1C. Due to differences in catalytic turnover between the three enzymes, different concentrations of SNM1B (1 nM) and SNM1C (2.5 nM) were used compared to that for SNM1A (0.5 nM) in the assays. Note that the substrate utilised for the high-throughput fluorescence based and subsequent SNM1A and SNM1B assays differed slightly for SNM1C reflecting its (primarily) endonucleolytic, rather than exonucleolytic, activity (ESI Fig. 9 ^†).
Fluorescence-based nuclease digestion SNM1A–C assays were performed as described.[30,45] […] Fluorescence was measured using a PHERAstar FSX fluorescent plate reader in fluorescent top read mode using excitation at 495 nm, emission at 525 nm, and cutoff at […]. Fluorescence spectra were measured every 140 s, for 35 min, at 37 °C. The fluorescence intensity of each well was plotted against compound concentration and fitted using a log (inhibitor) response curve using GraphPad Prism software (GraphPad Software, Inc., La Jolla, CA, USA).

SNM1C [3] = target: T2, SNM1C (Homo sapiens, UniProt Q96SD1); assay: real-time fluorescence-based nuclease assay, SNM1C; format: biochemical; details: real-time fluorescence-based nuclease assay
T2 construct: for the MBL and β-CASP domains of SNM1C (aa 1–362) into the baculovirus expression vector pBF-6HZB; made in house; host or cells: Sf9 insect cells (baculovirus)
Excerpt: as §1, with “Due to differences in catalytic turnover between the three enzymes, different concentrations of SNM1B (1 nM) and SNM1C (2.5 nM) were used compared to that for SNM1A (0.5 nM) in the assays.” left out
(§2) Fluorescence-based nuclease digestion SNM1A–C assays were performed as described.[30,45] In the case of SNM1A and SNM1B, a 20-mer oligonucleotide with a 5′ FITC-conjugated-T and an internal BHQ-1 (black hole quencher) conjugated-T, eight nucleotides distal (3′) to the fluor was utilised; whereas for SNM1C a 20-mer oligonucleotide with a 5′ FITC-conjugated-T and a 3′ BHQ-1(black hole quencher) was used to capture all possible endonucleolytic incisions. Reactions (25 μL) were performed in 384 well microplates in nuclease buffer (20 mM HEPES-KOH pH 7.5, 50 mM KCl, 10 mM MgCl2, 0.5 mM TCEP, 0.05% (v/v) Triton-X, 0.1 mg mL^−1 BSA, 5% (v/v) glycerol) with SNM1A/B/C (0.1 nM SNM1A, 0.5 nM SNM1B and 1 nM SNM1C) as indicated. Proteins were incubated for 10 min at RT with the stated compound where applicable, before the reaction was initiated with the addition of 10 nM DNA substrate. […] Fluorescence spectra were measured every 140 s, for 35 min, at 37 °C. The fluorescence intensity of each well was plotted against compound concentration and fitted using a log (inhibitor) response curve using GraphPad Prism software (GraphPad Software, Inc., La Jolla, CA, USA).

SNM1A [4] = target: T3, SNM1A (Homo sapiens, UniProt Q6PJP8); assay: real-time fluorescence-based nuclease assay, SNM1A; format: biochemical; set-up: DNA encoding for the MBL and β-CASP domains of SNM1A (aa 676–1040) was cloned into the baculovirus transfer vector pFB-LIC-Bse; inferred from vector pFB-LIC-Bse and the IMAC purification; made in house; host or cells: Sf9 insect cells (baculovirus); details: resynthesised compounds
T3 sequence (Q6PJP8 676-1040): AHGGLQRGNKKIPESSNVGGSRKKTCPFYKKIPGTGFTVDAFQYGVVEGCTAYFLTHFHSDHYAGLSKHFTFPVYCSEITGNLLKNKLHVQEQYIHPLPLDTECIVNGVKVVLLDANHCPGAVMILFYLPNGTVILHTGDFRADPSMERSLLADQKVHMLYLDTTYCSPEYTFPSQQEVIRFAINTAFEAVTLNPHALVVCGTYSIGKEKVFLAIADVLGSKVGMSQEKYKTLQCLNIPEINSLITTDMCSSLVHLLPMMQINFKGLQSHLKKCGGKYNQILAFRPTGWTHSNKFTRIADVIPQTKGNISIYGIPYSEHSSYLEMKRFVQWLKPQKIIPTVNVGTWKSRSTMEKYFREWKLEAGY
Experimental: (§3) In brief, the fluorescence-based nuclease assay utilises a chemically modified 20-nucleotide ssDNA substrate with a fluorescein isothiocyanate (FITC) derived 5′-group and an internal black-hole-quencher-1 (BHQ-1), located eight nucleotides distal to the fluorescein group. In the intact substrate the BHQ-1 suppresses fluorescence, however, exonucleolytic digestion of the substrate from the 5′ end by SNM1A uncouples the BHQ-1 and FITC moieties (see Fig. 1D). Spectra were measured every 140 seconds with an increase in fluorescence indicating enzymatic activity by SNM1A (concentration: 0.1 nM).
as §2

solubility = format: physicochemical
SNM1A [5] = target: T3, SNM1A; set-up: DNA encoding for the MBL and β-CASP domains of SNM1A (aa 676–1040) was cloned into the baculovirus transfer vector pFB-LIC-Bse; inferred from vector pFB-LIC-Bse and the IMAC purification; made in house; host or cells: Sf9 insect cells (baculovirus); details: cited from earlier work
SNM1C [6] = target: T2, SNM1C; details: cited from earlier work
SNM1A [7] = target: T3, SNM1A; assay: biochemical
Experimental: as §3

[8] = real-time fluorescence-based nuclease assay, read-out: SNM1A IC50

T2 sequence (Q96SD1 1-362): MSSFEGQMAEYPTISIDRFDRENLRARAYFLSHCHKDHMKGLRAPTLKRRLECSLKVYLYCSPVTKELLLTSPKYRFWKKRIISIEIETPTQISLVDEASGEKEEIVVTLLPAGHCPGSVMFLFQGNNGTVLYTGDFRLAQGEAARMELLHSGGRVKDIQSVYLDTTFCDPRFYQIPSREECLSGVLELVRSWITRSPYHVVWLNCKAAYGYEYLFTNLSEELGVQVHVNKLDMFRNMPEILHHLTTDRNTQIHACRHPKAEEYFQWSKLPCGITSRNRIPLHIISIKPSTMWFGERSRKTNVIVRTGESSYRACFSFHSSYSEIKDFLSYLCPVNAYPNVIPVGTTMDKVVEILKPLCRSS

## N.N.[Cl][Pt][Cl] [cisplatin, reference compound]
[1]
  average number of γH2AX foci at 24 hours: 21.5 ± 0.5 foci
[2]
  average γH2AX foci count at 24 hours: 10.4 ± 0.3 foci

## COc1ccc2c3c(cccc13)C(=O)N(O)C2=O [compound 1]
SNM1B
  IC50: 1.9 µM
SNM1C [3]
  IC50: 0.37 µM
SNM1A [4]; [8]
  IC50: 2.4 µM
solubility
  solubility: poor solubility

## CO/N=C(\C(=O)N[C@@H]1C(=O)N2C(C(=O)O)=C(CSc3nc(=O)c(=O)[nH]n3C)CS[C@H]12)c1csc(N)n1 [compound 5, ceftriaxone]
SNM1A [5]
  inhibition of SNM1A (potency in words): low μM potency
SNM1C [6]
  inhibition of SNM1C (potency in words): low μM potency

## C=CCNc1nc(N[C@@H](CC(C)C)C(=O)O)c2cc(Cl)ccc2n1 [compound 6]
SNM1A [4]; SNM1A IC50, real-time fluorescence-based nuclease assay
  IC50: 129 µM
SNM1A [4]; [8]
  IC50: 110 µM
SNM1A [7]
  IC50: 17.4 µM
